Earlier results on 1 compound are cited in US11717498B2, “Methods of treatment using amphetamine controlled release, prodrug, and abuse deterrent dosage forms” (CHEMAPOTHECA, LLC, priority 2013, dated 2023).

For this data set the following is noted: l-form versus d-form.

Each structure is given as a SMILES string.

On to `CC(C)NC[C@H](O)COc1cccc2ccccc12` [l-form of propranolol, propranolol], for which the “potency relative to the d-form” value was “about 100 times”.
